Source: ChEMBL document CHEMBL1201862, “PubChem BioAssay data set” (2004)
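Growth conditions: 96-well plates. Treatment: test compound, 48 hours, 5 concentrations. Analysis: linear interpolation between bracketing concentrations; unreached endpoints set to highest concentration. Abbreviation: GI50, concentration required for 50% inhibition of growth.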 Activity calls are given as the source filed them. Cut-off read from the data, not from the text of the source: active = GI50 up to about 1.1 µM and inactive = higher.

How the values were obtained:
Test in all cases: NCI-60 cell line screen, 48 h
SN12C = tested on: SN12C
HOP-92 = tested on: HOP-92
SK-MEL-28 = tested on: SK-MEL-28
LXFL 529 = tested on: LXFL 529
CCRF-CEM = tested on: CCRF-CEM
SW-620 = tested on: SW-620
A498 = tested on: A498
NCI-H460 = tested on: NCI-H460
786-0 = tested on: 786-0
HOP-62 = tested on: HOP-62
SK-MEL-2 = tested on: SK-MEL-2
SK-MEL-5 = tested on: SK-MEL-5
HT-29 = tested on: HT-29
EKVX = tested on: EKVX
NCI/ADR-RES = tested on: NCI/ADR-RES
MCF7 = tested on: MCF7
Hs-578T = tested on: Hs-578T
PC-3 = tested on: PC-3
BT-549 = tested on: BT-549
T47D = tested on: T47D

| SMILES | GI50 (SN12C) | GI50 (HOP-92) | GI50 (SK-MEL-28) | GI50 (LXFL 529) | GI50 (CCRF-CEM) | GI50 (SW-620) | GI50 (A498) | GI50 (NCI-H460) | GI50 (786-0) | GI50 (HOP-62) | GI50 (SK-MEL-2) | GI50 (SK-MEL-5) | GI50 (HT-29) | GI50 (EKVX) | GI50 (NCI/ADR-RES) | GI50 (MCF7) | GI50 (Hs-578T) | GI50 (PC-3) | GI50 (BT-549) | GI50 (T47D) |
| --- | --- | --- | --- | --- | --- | --- | --- | --- | --- | --- | --- | --- | --- | --- | --- | --- | --- | --- | --- | --- |
| O=S(=O)(c1ccccc1)n1cnc(CCc2ccccc2)n1 | > 100 µM (inactive) | > 100 µM (inactive) | > 100 µM (inactive) | > 100 µM (inactive) | > 100 µM (inactive) | > 100 µM (inactive) | > 100 µM (inactive) | > 100 µM (inactive) | > 100 µM (inactive) | > 100 µM (inactive) | > 100 µM (inactive) | > 100 µM (inactive) | > 100 µM (inactive) | – | – | – | – | – | – | – |
| CN(C)CCCCC1CCN(CC(=O)N2c3ccccc3NC(=O)c3ccccc32)CC1 | > 100 µM (inactive) | > 100 µM (inactive) | > 100 µM (inactive) | > 100 µM (inactive) | 69.8 µM (inactive) | > 100 µM (inactive) | > 100 µM (inactive) | – | > 100 µM (inactive) | > 100 µM (inactive) | > 100 µM (inactive) | > 100 µM (inactive) | 61.2 µM (inactive) | > 100 µM (inactive) | – | – | – | – | – | – |
| CC(C)n1c2c([n+](C)c1/C=C/c1ccccc1)C(=O)c1ccccc1C2=O | 0.0495 µM (active) | 0.309 µM (active) | 0.312 µM (active) | 0.0861 µM (active) | 0.0743 µM (active) | 0.0501 µM (active) | 0.611 µM (active) | 0.36 µM (active) | 0.259 µM (active) | 0.398 µM (active) | 0.116 µM (active) | 0.07 µM (active) | 0.0875 µM (active) | 0.206 µM (active) | 48.6 µM (inactive) | 0.0516 µM (active) | 1.91 µM (inactive) | 0.149 µM (active) | 0.241 µM (active) | 0.0397 µM (active) |
| Cc1cc([N+](=O)[O-])ccc1Nc1cccc(Cl)c1C | 16.7 µM (inactive) | – | 16.7 µM (inactive) | 14.4 µM (inactive) | 16.5 µM (inactive) | 24.3 µM (inactive) | 15.3 µM (inactive) | – | 14 µM (inactive) | 14.7 µM (inactive) | 14.9 µM (inactive) | 15.6 µM (inactive) | 17.6 µM (inactive) | 20 µM (inactive) | – | – | – | – | – | – |
| Cc1ccc(C(=O)/C=C/c2cccc([N+](=O)[O-])c2)cc1 | > 56.4 µM (inactive) | > 100 µM (inactive) | > 100 µM (inactive) | 37.8 µM (inactive) | 29.1 µM (inactive) | 21.6 µM (inactive) | 98.2 µM (inactive) | > 100 µM (inactive) | 28.4 µM (inactive) | > 100 µM (inactive) | > 100 µM (inactive) | > 100 µM (inactive) | 29.3 µM (inactive) | > 100 µM (inactive) | – | – | – | – | – | – |
| O=C1C2Cc3ccccc3CN2C(=O)N1CCN1CCOCC1 (configuration not stated) | > 100 µM (inactive) | – | > 100 µM (inactive) | > 100 µM (inactive) | > 100 µM (inactive) | > 100 µM (inactive) | > 100 µM (inactive) | > 100 µM (inactive) | > 100 µM (inactive) | > 100 µM (inactive) | > 100 µM (inactive) | > 100 µM (inactive) | – | – | – | – | – | – | – | – |
| COc1ccccc1/C=C(\C#N)c1ccccc1 | 49.1 µM (inactive) | 45 µM (inactive) | 45.5 µM (inactive) | 36.1 µM (inactive) | 17.7 µM (inactive) | 23.7 µM (inactive) | 24.2 µM (inactive) | 23.8 µM (inactive) | 20 µM (inactive) | 46.5 µM (inactive) | 27.2 µM (inactive) | 16.7 µM (inactive) | 29.9 µM (inactive) | – | – | – | – | – | – | – |
| Cc1ccc(S(=O)(=O)SC(C)(C)C)cc1 | 38.9 µM (inactive) | 63 µM (inactive) | 48.4 µM (inactive) | 32.7 µM (inactive) | 12.6 µM (inactive) | 22.2 µM (inactive) | > 100 µM (inactive) | > 100 µM (inactive) | 16.9 µM (inactive) | > 60.3 µM (inactive) | 33.2 µM (inactive) | 46.1 µM (inactive) | 13.1 µM (inactive) | > 45.8 µM (inactive) | 32.6 µM (inactive) | 19.2 µM (inactive) | 34.2 µM (inactive) | > 10 µM (inactive) | 22.4 µM (inactive) | > 100 µM (inactive) |
| N=C(N)NS(=O)(=O)c1ccc(Nc2c3ccccc3nc3c(C(=O)Nc4ccc(S(N)(=O)=O)cc4)cccc23)cc1 | > 100 µM (inactive) | 47.9 µM (inactive) | > 100 µM (inactive) | 26.8 µM (inactive) | 71.3 µM (inactive) | > 100 µM (inactive) | > 100 µM (inactive) | > 100 µM (inactive) | > 100 µM (inactive) | > 100 µM (inactive) | 42.5 µM (inactive) | 78.9 µM (inactive) | > 100 µM (inactive) | > 100 µM (inactive) | – | – | – | – | – | – |
| COC1=CC(=O)c2c(cc3c(c2O)-c2c(OC)cc4cc5c(c(O)c4c2OC(=O)CC(C)(O)C3)C(=O)CC(C)(O)C5)C1=O (configuration not stated) | 1.8 µM (inactive) | 1.95 µM (inactive) | 1.32 µM (inactive) | 1.16 µM (inactive) | 1.95 µM (inactive) | 2.37 µM (inactive) | 2.48 µM (inactive) | 1.31 µM (inactive) | 2.65 µM (inactive) | 1.21 µM (inactive) | 1.28 µM (inactive) | 0.237 µM (active) | 1.96 µM (inactive) | 2.27 µM (inactive) | – | – | – | – | – | – |
| O=C1/C(=N\O)S(=O)(=O)c2ccccc21 | > 100 µM (inactive) | > 100 µM (inactive) | – | > 100 µM (inactive) | > 100 µM (inactive) | > 100 µM (inactive) | > 100 µM (inactive) | > 100 µM (inactive) | > 100 µM (inactive) | > 100 µM (inactive) | > 100 µM (inactive) | > 100 µM (inactive) | 92.7 µM (inactive) | – | – | – | – | – | – | – |
| N=S(=O)(c1ccccc1)c1ccccc1[N+](=O)[O-] (configuration not stated) | > 100 µM (inactive) | – | – | > 100 µM (inactive) | > 100 µM (inactive) | > 100 µM (inactive) | > 100 µM (inactive) | > 100 µM (inactive) | > 100 µM (inactive) | > 100 µM (inactive) | 68.5 µM (inactive) | > 100 µM (inactive) | > 100 µM (inactive) | > 100 µM (inactive) | – | – | – | – | – | – |
| N#C/N=C1\NCCC(=O)N1CCc1c[nH]c2ccccc12 | > 100 µM (inactive) | – | > 100 µM (inactive) | > 100 µM (inactive) | > 100 µM (inactive) | > 100 µM (inactive) | – | – | > 100 µM (inactive) | > 100 µM (inactive) | – | > 100 µM (inactive) | > 100 µM (inactive) | > 100 µM (inactive) | – | – | – | – | – | – |
| O=C1c2ccccc2-c2cccc3ccc(Cc4ccccc4)c1c23 | > 100 µM (inactive) | > 100 µM (inactive) | > 100 µM (inactive) | > 100 µM (inactive) | > 100 µM (inactive) | > 100 µM (inactive) | – | > 100 µM (inactive) | > 100 µM (inactive) | > 100 µM (inactive) | > 100 µM (inactive) | > 100 µM (inactive) | > 100 µM (inactive) | > 100 µM (inactive) | – | – | – | – | – | – |
| CCCN1C(=O)C/C(=C\C(C)=O)Nc2ccccc21 | > 100 µM (inactive) | > 100 µM (inactive) | > 100 µM (inactive) | > 100 µM (inactive) | > 100 µM (inactive) | > 100 µM (inactive) | – | > 100 µM (inactive) | > 100 µM (inactive) | > 100 µM (inactive) | > 100 µM (inactive) | > 100 µM (inactive) | > 100 µM (inactive) | > 100 µM (inactive) | – | – | – | – | – | – |
| CC1=Nc2c(O)nc(S)nc2NC(c2c(Cl)cccc2Cl)C1 (configuration not stated) | 1.42 µM (inactive) | 9.31 µM (inactive) | 2.73 µM (inactive) | 2.96 µM (inactive) | 0.275 µM (active) | 0.971 µM (active) | 1.67 µM (inactive) | 1.92 µM (inactive) | 0.902 µM (active) | 6.84 µM (inactive) | 18 µM (inactive) | 3.58 µM (inactive) | 0.998 µM (active) | 7.18 µM (inactive) | 0.193 µM (active) | 1.13 µM (inactive) | 0.589 µM (active) | 1.17 µM (inactive) | 1.24 µM (inactive) | 1.48 µM (inactive) |
| O=C(c1ccccc1)c1oc2ccc(Br)cc2c1-c1cnn(-c2ccccc2)c1 | > 100 µM (inactive) | > 100 µM (inactive) | > 100 µM (inactive) | > 100 µM (inactive) | > 100 µM (inactive) | > 10 µM (inactive) | – | > 100 µM (inactive) | > 100 µM (inactive) | > 100 µM (inactive) | > 100 µM (inactive) | > 10 µM (inactive) | > 100 µM (inactive) | > 10 µM (inactive) | – | – | – | – | – | – |
